Data reported in PubChem BioAssay (NCI).
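Five compound concentrations were applied to cells in 96-well plates for 48 hours; endpoints were derived by simple linear interpolation of the resulting dose-response curve. GI50 is the concentration that inhibits growth by half. TGI: concentration producing complete growth inhibition.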 *1 amine or outer side, *2 acyl side, *3 side chain or, on linkers, in order; H or OH if unused. Where a SMILES comes first, the peptide text is derived from it. [ ]: non-standard residue; d: D form. The star is where a group is joined. X11 = C/C=C/CC(C)C(O)[C@H](N[*:1])C(=O)[*:2]; Leu(ol) = CC(C)C[C@H](N)CO; Iva = CC[C@](C)(N)C(=O)O; Octanoyl = CCCCCCCC(=O)*; Aib = CC(C)(N)C(=O)O

How the values were obtained:
Assay in all cases: growth of human tumour cells (NCI), 48 h
786-0 renal = test system: 786-0 renal
A498 renal = test system: A498 renal
A549 NSCLC = test system: A549 NSCLC
ACHN renal = test system: ACHN renal
BT-549 breast = test system: BT-549 breast
CAKI-1 renal = test system: CAKI-1 renal
CCRF-CEM leukemia = test system: CCRF-CEM leukemia
COLO 205 colon = test system: COLO 205 colon
DU-145 prostate = test system: DU-145 prostate
EKVX NSCLC = test system: EKVX NSCLC
HCC-2998 colon = test system: HCC-2998 colon
HCT-116 colon = test system: HCT-116 colon
HCT-15 colon = test system: HCT-15 colon
HL-60(TB) leukemia = test system: HL-60(TB) leukemia
HOP-62 NSCLC = test system: HOP-62 NSCLC
HS 578T breast = test system: HS 578T breast
HT29 colon = test system: HT29 colon
IGROV1 ovarian = test system: IGROV1 ovarian
K-562 leukemia = test system: K-562 leukemia
KM12 colon = test system: KM12 colon
LOX IMVI melanoma = test system: LOX IMVI melanoma
M14 melanoma = test system: M14 melanoma
MALME-3M melanoma = test system: MALME-3M melanoma
MCF7 breast = test system: MCF7 breast
MDA-MB-231 breast = test system: MDA-MB-231 breast
MDA-MB-435 = test system: MDA-MB-435
MOLT-4 leukemia = test system: MOLT-4 leukemia
NCI-H226 lung = test system: NCI-H226 lung
NCI-H460 lung = test system: NCI-H460 lung
NCI-H522 lung = test system: NCI-H522 lung
NCI/ADR-RES ovarian = test system: NCI/ADR-RES ovarian
OVCAR-3 ovarian = test system: OVCAR-3 ovarian
OVCAR-4 ovarian = test system: OVCAR-4 ovarian
OVCAR-5 ovarian = test system: OVCAR-5 ovarian
OVCAR-8 ovarian = test system: OVCAR-8 ovarian
PC-3 prostate = test system: PC-3 prostate
RPMI-8226 leukemia = test system: RPMI-8226 leukemia
RXF 393 renal = test system: RXF 393 renal
SF-268 CNS = test system: SF-268 CNS
SF-295 CNS = test system: SF-295 CNS
SF-539 CNS = test system: SF-539 CNS
SK-MEL-2 melanoma = test system: SK-MEL-2 melanoma
SK-MEL-28 melanoma = test system: SK-MEL-28 melanoma
SK-MEL-5 melanoma = test system: SK-MEL-5 melanoma
SK-OV-3 ovarian = test system: SK-OV-3 ovarian
SN12C renal = test system: SN12C renal
SNB-19 CNS = test system: SNB-19 CNS
SNB-75 CNS = test system: SNB-75 CNS
SR leukemia = test system: SR leukemia
SW-620 colon = test system: SW-620 colon
T-47D breast = test system: T-47D breast
TK-10 renal = test system: TK-10 renal
U251 CNS = test system: U251 CNS
UACC-257 melanoma = test system: UACC-257 melanoma
UACC-62 melanoma = test system: UACC-62 melanoma
UO-31 renal = test system: UO-31 renal

For `C/C=C/CC(C)C(O)[C@H](NC(=O)[C@@H]1CCCN1C(=O)C(C)(C)NC(=O)CCCCCCC)C(=O)N[C@@](C)(CC)C(=O)N[C@@H](CCC(N)=O)C(=O)N[C@H](CCC(N)=O)C(=O)NC(C)(C)C(=O)NC(C)(C)C(=O)N[C@@H](CCC(N)=O)C(=O)N[C@H](CC(C)C)C(=O)N[C@H](CO)CC(C)C` (stereo partly drawn) (Octanoyl-[Aib]P[X11][Iva]Q[dQ][Aib][Aib]Q[dL][Leu(ol)]), the GI50 (786-0 renal) was 2.71 µM, the TGI (786-0 renal) was 7.6 µM and the GI50 (A498 renal) was 2.74 µM. It also gave a TGI (A498 renal) of 7.25 µM, a GI50 (A549 NSCLC) of 5.12 µM and a TGI (A549 NSCLC) of 21 µM. The GI50 (ACHN renal) was 7.45 µM, the TGI (ACHN renal) was 19.9 µM and the GI50 (BT-549 breast) was 2.01 µM. It also gave a TGI (BT-549 breast) of 3.63 µM, a GI50 (CAKI-1 renal) of 4.89 µM and a TGI (CAKI-1 renal) of 18.4 µM. For the same compound, the GI50 (CCRF-CEM leukemia) was 2.35 µM, the TGI (CCRF-CEM leukemia) was 5.63 µM and the GI50 (COLO 205 colon) was 2.03 µM. For the same compound, the TGI (COLO 205 colon) was 4.04 µM, the GI50 (DU-145 prostate) was 2.15 µM and the TGI (DU-145 prostate) was 4.61 µM. For the same compound, the GI50 (EKVX NSCLC) was 2.83 µM, the TGI (EKVX NSCLC) was 9.74 µM and the GI50 (HCC-2998 colon) was 3 µM. For the same compound, the TGI (HCC-2998 colon) was 10.1 µM, the GI50 (HCT-116 colon) was 4.11 µM and the TGI (HCT-116 colon) was 16 µM. It also gave a GI50 (HCT-15 colon) of 5.2 µM, a TGI (HCT-15 colon) of 18.2 µM and a GI50 (HL-60(TB) leukemia) of 1.74 µM. For the same compound, the TGI (HL-60(TB) leukemia) was 3.86 µM, the GI50 (HOP-62 NSCLC) was 3.16 µM and the TGI (HOP-62 NSCLC) was 11.2 µM. It also gave a GI50 (HS 578T breast) of 2.45 µM, a TGI (HS 578T breast) of 6.8 µM and a GI50 (HT29 colon) of 7.35 µM. For the same compound, the TGI (HT29 colon) was 20.6 µM, the GI50 (IGROV1 ovarian) was 6.83 µM and the TGI (IGROV1 ovarian) was 20.3 µM. For the same compound, the GI50 (K-562 leukemia) was 1.85 µM, the TGI (K-562 leukemia) was 3.52 µM and the GI50 (KM12 colon) was 2.16 µM. For the same compound, the TGI (KM12 colon) was 4.77 µM, the GI50 (LOX IMVI melanoma) was 3.56 µM and the TGI (LOX IMVI melanoma) was 13.6 µM. For the same compound, the GI50 (M14 melanoma) was 2.66 µM, the TGI (M14 melanoma) was 7.2 µM and the GI50 (MALME-3M melanoma) was 1.96 µM. For the same compound, the TGI (MALME-3M melanoma) was 4.68 µM, the GI50 (MCF7 breast) was 2.95 µM and the TGI (MCF7 breast) was 10.7 µM. For the same compound, the GI50 (MDA-MB-231 breast) was 3.16 µM, the TGI (MDA-MB-231 breast) was 10.1 µM and the GI50 (MDA-MB-435) was 1.93 µM. The TGI (MDA-MB-435) was 3.83 µM, the GI50 (MOLT-4 leukemia) was 2.43 µM and the TGI (MOLT-4 leukemia) was 5.62 µM. For the same compound, the GI50 (NCI-H226 lung) was 2.25 µM, the TGI (NCI-H226 lung) was 5.92 µM and the GI50 (NCI-H460 lung) was 3.89 µM. For the same compound, the TGI (NCI-H460 lung) was 13.1 µM, the GI50 (NCI-H522 lung) was 2.27 µM and the TGI (NCI-H522 lung) was 6.34 µM. The GI50 (NCI/ADR-RES ovarian) was 8.82 µM, the TGI (NCI/ADR-RES ovarian) was 22.4 µM and the GI50 (OVCAR-3 ovarian) was 10.6 µM. It also gave a TGI (OVCAR-3 ovarian) of 24 µM, a GI50 (OVCAR-4 ovarian) of 10.4 µM and a TGI (OVCAR-4 ovarian) of 24.1 µM. The GI50 (OVCAR-5 ovarian) was 5.64 µM, the TGI (OVCAR-5 ovarian) was 18.7 µM and the GI50 (OVCAR-8 ovarian) was 3.16 µM. It also gave a TGI (OVCAR-8 ovarian) of 12.3 µM, a GI50 (PC-3 prostate) of 2.34 µM and a TGI (PC-3 prostate) of 6.75 µM. It also gave a GI50 (RPMI-8226 leukemia) of 2.38 µM, a TGI (RPMI-8226 leukemia) of 5.28 µM and a GI50 (RXF 393 renal) of 1.79 µM. For the same compound, the TGI (RXF 393 renal) was 3.37 µM, the GI50 (SF-268 CNS) was 2.96 µM and the TGI (SF-268 CNS) was 10.2 µM. The GI50 (SF-295 CNS) was 2.27 µM, the TGI (SF-295 CNS) was 5.61 µM and the GI50 (SF-539 CNS) was 1.95 µM. It also gave a TGI (SF-539 CNS) of 4.14 µM, a GI50 (SK-MEL-2 melanoma) of 6.7 µM and a TGI (SK-MEL-2 melanoma) of 19.4 µM. The GI50 (SK-MEL-28 melanoma) was 1.81 µM, the TGI (SK-MEL-28 melanoma) was 3.38 µM and the GI50 (SK-MEL-5 melanoma) was 1.85 µM. It also gave a TGI (SK-MEL-5 melanoma) of 3.52 µM, a GI50 (SK-OV-3 ovarian) of 10.7 µM and a TGI (SK-OV-3 ovarian) of 23.9 µM. The GI50 (SN12C renal) was 3.12 µM, the TGI (SN12C renal) was 11.6 µM and the GI50 (SNB-19 CNS) was 3.95 µM. For the same compound, the TGI (SNB-19 CNS) was 14.6 µM, the GI50 (SNB-75 CNS) was 1.42 µM and the TGI (SNB-75 CNS) was 3.24 µM. It also gave a GI50 (SR leukemia) of 1.79 µM, a TGI (SR leukemia) of 3.64 µM and a GI50 (SW-620 colon) of 6.91 µM. It also gave a TGI (SW-620 colon) of 20.2 µM, a GI50 (T-47D breast) of 4.34 µM and a TGI (T-47D breast) of 20.3 µM. It also gave a GI50 (TK-10 renal) of 4.54 µM, a TGI (TK-10 renal) of 15 µM and a GI50 (U251 CNS) of 1.74 µM. It also gave a TGI (U251 CNS) of 3.2 µM, a GI50 (UACC-257 melanoma) of 1.8 µM and a TGI (UACC-257 melanoma) of 3.75 µM. The GI50 (UACC-62 melanoma) was 3.02 µM, the TGI (UACC-62 melanoma) was 11.2 µM and the GI50 (UO-31 renal) was 3.1 µM. For the same compound, the TGI (UO-31 renal) was 14.9 µM.
